Consider 13 compounds from US20100068692A1, “ANTIFREEZE GLYCOPROTEIN ANALOGUES AND USES THEREOF” (UNIVERSITY OF OTTAWA, priority 2008, published 2010).

For data set [1] the following is noted: isentropic, value x10^4, aqueous solution at 298 K; cited from earlier work.
Data set [2] is described as follows: Recrystallization inhibition (RI) assay, mean largest grain size (Experiment 1). As to conditions: carbohydrate concentration corrected to 0.021 mmole/L (FIG. 3). On the procedure:
All measurements were performed in triplicate. The Y-axis depicts the mean largest grain size (MLGS in mm^2) of ice crystals measured directly from photographs of the sample, as described previously (Raymond, J. A. D., A. L., Proc. Natl. Acad. Sci. USA 1977, 74, 2589).
All samples were compared to a solution of phosphate buffered saline (PBS) which was used as a negative control and a solution of AFGP 8 isolated from Gagus ogac (generously provided by AquaBounty Farms). Each solution was tested at three different concentrations in order to rule out any non-specific RI effects. The Y-axis in FIG. 5 represents mean largest grain size (MLGS) where small bars are representative of potent recrystallization-inhibition activity.
The Y-axis in FIG. 7 represents the mean largest grain size (MLGS) which is an average ice crystal surface area for each sample.

The nature of data set [3]: RI assay, splat cooling with domain recognition software (Experiment 2). On the procedure: Sample analysis for RI activity was performed using the “splat cooling” method as described previously (Knight, C. A.; Hallet, J.; DeVries, A. L. Cryobiology, 1998, 25, 55). In this method, the analyte is dissolved in phosphate buffered saline (PBS) solution and a 10 μL drop of this solution is dropped from a micropipette through a two metre high plastic tube (10 cm in diameter) onto a block of polished aluminum pre-cooled to approximately −80° C. The droplet freezes instantly on the polished aluminum block and is approximately 1 cm in diameter and 20 μm thick. This wafer is then carefully removed from the surface of the block and transferred to a cryostage held at −6.4° C. for annealing. After a period of 30 minutes, the wafer was photographed between crossed polarizing filters using a digital camera (Nikon CoolPix 5000) fitted to the microscope. A total of three images are taken from each wafer. During flash freezing, ice crystals spontaneously nucleate from the super-cooled solution. These initial crystals are relatively homogenous in size and quite small. During the annealing cycle recrystallization occurs, resulting in a dramatic increase in ice crystal size. A quantitative measure of the difference in recrystallization inhibition of two compounds X and Y is the difference in the dynamics of the ice crystal size distribution. […] This processing employed of the Microsoft Windows Graphical User Interface to allow a user to visually demarcate and store the vertices of ice domains in a digital micrograph. […] To eliminate the need to fully process each micrograph, an algorithm was developed to randomly display a number of x/y locations. The algorithm made use of a built-in pseudo random number generator (rand(x)) and was written so that no two locations were closer than 1/10th the field of view of the micrograph. The formula for the area of a polygon that is not self-intersecting and contains no holes is then given by Eq.2,
where N is the number of vertices, and x0, y0 to xN−1, yN−1 are the vertices circumventing the polygon in a clockwise direction. The point x0, y0 is assumed to be equivalent to the point xN, yN. The software was written in C using Microsoft Visual Studio 6.0 on a Pentium class personal computer running Microsoft Windows 2000 or XP. All data was plotted and analyzed using Microsoft Excel.

Data set [4] in a line: Nanolitre osmometry of carbohydrate solutions (Experiment 2). As to conditions: 10 mg/mL solutions in double-distilled water. On the procedure: Nanoliter osmometry was performed using a nanoliter osmometer (Clifton Technical Physics, Hartford, N.Y.) as described by Chakrabartty and Hew (Chakrabartty, A.; Hew, C. L. Eur. J. Biochem. 1991, 202, 1057-1063). All measurements were made in doubly distilled water. Ice crystal morphology was observed through a Leitz compound microscope equipped with an Olympus 20× (infinity corrected) objective, Leitz Periplan 32× photo eyepiece and a Hitachi KP-M2U CCD camera connected to a Toshiba MV13K1 TV/VCR system. Still images were captured directly using a Nikon CoolPix digital camera.
It has been proposed that the optimal distance between hydroxyl groups is 4.2-4.5 Angstroms (Baruch, E.; Belostotskii, A. M.; Mastai, Y. J. Mol. Struct. 2008, 874, 170).

Data set [5] can be described thus: Thermal hysteresis (TH), microcapilliary method.
Data set [6] in a line: Nanoliter osmometer: thermal hysteresis and dynamic ice shaping (Experiment 1). The conditions noted are these: without antifreeze the crystal is perfectly round, 'Identical images' refers to that, 13: 0.0033 mmole/L in doubly distilled water.
Description: FIG. 4 (A) depicts a single ice crystal in the absence of biological antifreeze. Notice that the crystal is perfectly round and has no facets or edges.
AFGP analogues 18a-c were assayed for antifreeze protein-specific activity using nanoliter osmometry and a recrystallization-inhibition assay.

“Also recorded” adds a separate entry of the source.

Consider `OCC1O[C@H](O[C@@H]2C(CO)O[C@@H](O)C(O)C2O)C(O)C(O)[C@@H]1O` (stereo partly shown), for which the “Molar Compressibility (K2°(s)x10^4)” value in data set [1] is given as −23.7 cm^3 mol^−1 bar^−1.

As to `N[C@@H](CCCCNC(=O)C[C@H]1OC(CO)[C@H](O)[C@H](O)C1O)C(=O)NCC(=O)NCC(=O)O` (stereo partly shown) [Compound 10], in data set [2], the “RI activity relative to PBS (in words)” value is listed as “do not show any RI activity”. For `OCC1O[C@@H](O)C(O)[C@@H](O)[C@H]1O` (stereo partly drawn) [D-galactose], the “RI activity (in words)” value is given as “inhibit recrystallization as well as a 3% DMSO solution” in data set [3] (0.022 M in PBS solution); “as efficient at inhibiting recrystallization as a 3% (v/v) DMSO solution; also recorded: possesses the most RI activity” in data set [3] (0.022 M in PBS solution, listed as galactose); “RI activity similar to that of a 0.022 M solution” in data set [3] (0.044 M solution in PBS); “effective inhibitor of recrystallization” in data set [3] (0.22 M solution in PBS). The “Melting Point” value in data set [4] is −0.069 °C. As for `OCC1O[C@@H](O)C(O)[C@@H](O)[C@@H]1O` (stereo partly drawn) [D-glucose], in data set [1], the “Molar Compressibility (K2°(s)x10^4)” value is given as −17.6 cm^3 mol^−1 bar^−1. Also, the “Melting Point” value in data set [4] was −0.055 °C.

Consider `OCC1O[C@H](O[C@H]2OC(CO)[C@@H](O)C(O)C2O)C(O)C(O)[C@@H]1O` (stereo partly drawn) [D-trehalose], for which the “Melting Point” value in data set [4] is −0.015 °C. For the compound `C[S+](C)[O-]` [DMSO, dimethylsulfoxide], the figures for the “RI activity (in words)” value in data set [3] (0.1% (v/v) solution in PBS) and in data set [3] (4% (v/v) solution in PBS) were “failed to inhibit recrystallization” and “produced a significant RI effect”, respectively.

For `OCC1O[C@H](O[C@H]2OC(CO)[C@@H](O)C(O)C2O)C(O)C(O)[C@@H]1O` (stereo partly shown) [drawing 28], the “Molar Compressibility (K2°(s)x10^4)” value in data set [1] was −30.2 cm^3 mol^−1 bar^−1. `OCC(O)CO` [glycerol]: the “temperature below the melting point at which rapid crystal growth occurred / solution freezes” value in data set [5] was −0.01 °C. Take `OCC1O[C@H](OCC2O[C@@H](O)C(O)C(O)[C@@H]2O)C(O)C(O)[C@H]1O` (stereo partly shown) [melibiose]: the “Molar Compressibility (K2°(s)x10^4)” value in data set [1] is on record as −31.2 cm^3 mol^−1 bar^−1. Further, the “RI activity (in words)” value in data set [3] (0.022 M in PBS solution) is given as “is the most potent”. Besides, the “Melting Point” value in data set [4] was −0.17 °C. Turning to `[Cl-].[Na+]` [salt, sodium chloride], the “single ice crystal morphology” value in data set [6] is “Identical images”. Moreover, the “temperature below the melting point at which rapid crystal growth occurred / solution freezes” value in data set [5] is −0.01 °C. On to `OC[C@H]1O[C@@](CO)(O[C@H]2O[C@H](CO)[C@@H](O)[C@H](O)[C@H]2O)[C@@H](O)[C@@H]1O` [sucrose], for which the “RI activity (in words)” value in data set [3] (0.022 M in PBS solution) is given as “little effect upon recrystallization”.

Consider `OCC1O[C@@H](O)C(O)[C@@H](O)[C@H]1O` (stereo partly shown) [talose], for which the “Molar Compressibility (K2°(s)x10^4)” value in data set [1] is given as −11.9 cm^3 mol^−1 bar^−1. As for “(L-lysine-glycine-glycine)-6-glycine [peptide control]”, in data set [2], the “RI activity relative to PBS (in words)” value is listed as “did not inhibit the growth of ice”.
